{"source": "ChEMBL document CHEMBL4804284", "design_in_all_cases": "scale not given: the % may be the effect or the level left", "key": {"[1]": {"molecular_target": "Misshapen-like kinase 1 (Homo sapiens) (UniProt Q8N4C8)", "sequence (Q8N4C8 whole entry, looked up)": "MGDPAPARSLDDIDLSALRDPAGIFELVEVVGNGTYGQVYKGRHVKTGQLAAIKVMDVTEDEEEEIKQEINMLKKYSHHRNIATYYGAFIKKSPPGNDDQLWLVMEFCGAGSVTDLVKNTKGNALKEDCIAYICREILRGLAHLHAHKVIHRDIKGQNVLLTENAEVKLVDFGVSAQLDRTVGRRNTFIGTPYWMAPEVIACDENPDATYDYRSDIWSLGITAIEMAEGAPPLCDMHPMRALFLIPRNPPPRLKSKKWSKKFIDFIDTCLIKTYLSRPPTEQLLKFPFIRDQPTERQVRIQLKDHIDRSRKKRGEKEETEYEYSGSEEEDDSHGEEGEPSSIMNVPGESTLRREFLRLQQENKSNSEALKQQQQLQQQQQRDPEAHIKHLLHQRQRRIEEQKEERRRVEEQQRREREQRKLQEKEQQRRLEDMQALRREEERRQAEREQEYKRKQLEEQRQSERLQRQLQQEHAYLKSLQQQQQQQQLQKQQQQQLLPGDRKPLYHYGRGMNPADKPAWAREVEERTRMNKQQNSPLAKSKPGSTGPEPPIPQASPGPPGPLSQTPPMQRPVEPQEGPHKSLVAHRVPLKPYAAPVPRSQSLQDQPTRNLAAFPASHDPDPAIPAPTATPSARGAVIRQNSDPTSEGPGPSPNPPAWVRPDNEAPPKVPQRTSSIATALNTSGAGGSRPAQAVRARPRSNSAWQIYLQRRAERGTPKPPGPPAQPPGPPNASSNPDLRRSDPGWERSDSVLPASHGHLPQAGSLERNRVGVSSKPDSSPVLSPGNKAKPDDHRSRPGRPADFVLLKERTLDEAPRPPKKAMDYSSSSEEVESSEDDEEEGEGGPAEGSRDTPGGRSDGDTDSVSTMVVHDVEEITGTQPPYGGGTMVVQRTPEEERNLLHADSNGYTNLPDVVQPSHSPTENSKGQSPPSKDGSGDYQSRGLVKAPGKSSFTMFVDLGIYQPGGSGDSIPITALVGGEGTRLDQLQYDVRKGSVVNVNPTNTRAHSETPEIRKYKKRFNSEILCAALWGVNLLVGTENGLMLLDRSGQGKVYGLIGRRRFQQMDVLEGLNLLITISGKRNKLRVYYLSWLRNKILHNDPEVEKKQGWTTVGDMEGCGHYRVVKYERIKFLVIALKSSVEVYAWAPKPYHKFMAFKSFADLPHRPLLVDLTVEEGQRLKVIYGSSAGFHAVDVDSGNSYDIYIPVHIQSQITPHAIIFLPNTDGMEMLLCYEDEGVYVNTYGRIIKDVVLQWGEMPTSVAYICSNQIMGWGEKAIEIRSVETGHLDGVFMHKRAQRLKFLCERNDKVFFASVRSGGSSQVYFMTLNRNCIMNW", "assay": "Inhibition of DNA-tagged human MINK assessed as percent of control at 50000 nM by qPCR analysis relative to control"}, "[2]": {"molecular_target": "Serine/threonine-protein kinase pim-1 (Homo sapiens) (UniProt P11309)", "assay": "Inhibition of DNA-tagged human PIM1 assessed as percent of control at 50000 nM by qPCR analysis relative to control"}, "[3]": {"molecular_target": "Serine/threonine-protein kinase VRK2 (Homo sapiens) (UniProt Q86Y07)", "sequence (Q86Y07 whole entry)": "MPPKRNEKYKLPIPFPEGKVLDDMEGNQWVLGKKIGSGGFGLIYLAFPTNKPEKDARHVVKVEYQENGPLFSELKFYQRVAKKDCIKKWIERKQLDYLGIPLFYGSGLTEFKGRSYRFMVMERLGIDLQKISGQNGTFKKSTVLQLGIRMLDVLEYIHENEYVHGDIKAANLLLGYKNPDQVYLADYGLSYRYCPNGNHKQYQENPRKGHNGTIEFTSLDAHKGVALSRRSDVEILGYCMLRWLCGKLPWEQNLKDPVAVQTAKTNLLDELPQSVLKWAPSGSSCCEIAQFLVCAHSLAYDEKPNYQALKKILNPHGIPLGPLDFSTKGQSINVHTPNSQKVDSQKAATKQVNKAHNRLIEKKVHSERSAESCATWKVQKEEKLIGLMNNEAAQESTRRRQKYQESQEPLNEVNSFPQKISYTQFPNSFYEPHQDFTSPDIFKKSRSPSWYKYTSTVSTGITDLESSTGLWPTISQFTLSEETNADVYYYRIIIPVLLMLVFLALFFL", "assay": "Inhibition of DNA-tagged human VRK2 assessed as percent of control at 50000 nM by qPCR analysis relative to control"}, "[4]": {"molecular_target": "Serine/threonine-protein kinase 10 (Homo sapiens) (UniProt O94804)", "assay": "Inhibition of DNA-tagged human LOK assessed as percent of control at 50000 nM by qPCR analysis relative to control"}, "[5]": {"molecular_target": "Serine/threonine-protein kinase PLK4 (Homo sapiens) (UniProt O00444)", "assay": "Inhibition of DNA-tagged human PLK4 assessed as percent of control at 50000 nM by qPCR analysis relative to control"}, "[6]": {"molecular_target": "Serine/threonine-protein kinase TAO3 (Homo sapiens) (UniProt Q9H2K8)", "assay": "Inhibition of DNA-tagged human TAOK3 assessed as percent of control at 50000 nM by qPCR analysis relative to control"}, "[7]": {"molecular_target": "Mitogen-activated protein kinase 7 (Homo sapiens) (UniProt Q13164)", "sequence (Q13164 2-816 limits assumed)": "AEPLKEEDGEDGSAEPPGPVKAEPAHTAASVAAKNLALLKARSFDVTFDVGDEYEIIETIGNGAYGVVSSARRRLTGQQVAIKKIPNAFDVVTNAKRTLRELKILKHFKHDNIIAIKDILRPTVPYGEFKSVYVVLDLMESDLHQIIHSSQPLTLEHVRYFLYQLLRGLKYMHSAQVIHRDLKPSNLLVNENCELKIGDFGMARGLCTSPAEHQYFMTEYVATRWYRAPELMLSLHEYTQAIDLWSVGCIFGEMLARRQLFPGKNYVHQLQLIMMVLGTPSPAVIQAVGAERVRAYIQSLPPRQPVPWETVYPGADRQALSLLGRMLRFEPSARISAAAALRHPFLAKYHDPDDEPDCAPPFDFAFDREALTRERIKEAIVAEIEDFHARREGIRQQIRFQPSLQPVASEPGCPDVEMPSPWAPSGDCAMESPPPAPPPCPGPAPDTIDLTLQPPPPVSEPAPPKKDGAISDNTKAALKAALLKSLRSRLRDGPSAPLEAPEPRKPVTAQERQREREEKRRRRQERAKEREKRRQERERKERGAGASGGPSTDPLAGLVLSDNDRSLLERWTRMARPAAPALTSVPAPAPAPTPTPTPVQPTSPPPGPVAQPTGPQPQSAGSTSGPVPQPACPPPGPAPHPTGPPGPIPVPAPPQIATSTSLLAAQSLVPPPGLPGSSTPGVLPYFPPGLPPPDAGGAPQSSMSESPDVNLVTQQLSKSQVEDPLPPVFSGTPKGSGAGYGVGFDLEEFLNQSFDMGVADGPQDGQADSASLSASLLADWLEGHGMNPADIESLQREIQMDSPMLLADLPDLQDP", "assay": "Inhibition of DNA-tagged human ERK5 assessed as percent of control at 50000 nM by qPCR analysis relative to control"}, "[8]": {"molecular_target": "Bone morphogenetic protein receptor type-1B (Homo sapiens) (UniProt O00238)", "assay": "Inhibition of DNA-tagged human BMPR1B assessed as percent of control at 50000 nM by qPCR analysis relative to control"}, "[9]": {"molecular_target": "Interleukin-1 receptor-associated kinase 4 (Homo sapiens) (UniProt Q9NWZ3)", "assay": "Inhibition of DNA-tagged human IRAK4 assessed as percent of control at 50000 nM by qPCR analysis relative to control"}, "[10]": {"molecular_target": "NUAK family SNF1-like kinase 1 (Homo sapiens) (UniProt O60285)", "assay": "Inhibition of DNA-tagged human ARK5 assessed as percent of control at 50000 nM by qPCR analysis relative to control"}, "[11]": {"molecular_target": "Interferon-induced, double-stranded RNA-activated protein kinase (Homo sapiens) (UniProt P19525)", "assay": "Inhibition of DNA-tagged human PRKR assessed as percent of control at 50000 nM by qPCR analysis relative to control"}, "[12]": {"molecular_target": "Transient receptor potential cation channel subfamily M member 6 (Homo sapiens) (UniProt Q9BX84)", "assay": "Inhibition of DNA-tagged human TRPM6 assessed as percent of control at 50000 nM by qPCR analysis relative to control"}, "[13]": {"molecular_target": "Serine/threonine-protein kinase TAO1 (Homo sapiens) (UniProt Q7L7X3)", "assay": "Inhibition of DNA-tagged human TAOK1 assessed as percent of control at 50000 nM by qPCR analysis relative to control"}, "[14]": {"molecular_target": "Phosphatidylinositol 5-phosphate 4-kinase type-2 beta (Homo sapiens) (UniProt P78356)", "assay": "Inhibition of DNA-tagged human PIP5K2B assessed as percent of control at 50000 nM by qPCR analysis relative to control"}, "[15]": {"molecular_target": "Rho-associated protein kinase 1 (Homo sapiens) (UniProt Q13464)", "assay": "Inhibition of DNA-tagged human ROCK1 assessed as percent of control at 50000 nM by qPCR analysis relative to control"}, "[16]": {"molecular_target": "Tyrosine-protein kinase TXK (Homo sapiens) (UniProt P42681)", "assay": "Inhibition of DNA-tagged human TXK assessed as percent of control at 50000 nM by qPCR analysis relative to control"}, "[17]": {"molecular_target": "Cyclin-dependent kinase 13 (Homo sapiens) (UniProt Q14004)", "assay": "Inhibition of DNA-tagged human CDC2L5 assessed as percent of control at 50000 nM by qPCR analysis relative to control"}, "[18]": {"molecular_target": "Mitogen-activated protein kinase kinase kinase kinase 4 (Homo sapiens) (UniProt O95819)", "sequence (O95819 2-1239 limits assumed)": "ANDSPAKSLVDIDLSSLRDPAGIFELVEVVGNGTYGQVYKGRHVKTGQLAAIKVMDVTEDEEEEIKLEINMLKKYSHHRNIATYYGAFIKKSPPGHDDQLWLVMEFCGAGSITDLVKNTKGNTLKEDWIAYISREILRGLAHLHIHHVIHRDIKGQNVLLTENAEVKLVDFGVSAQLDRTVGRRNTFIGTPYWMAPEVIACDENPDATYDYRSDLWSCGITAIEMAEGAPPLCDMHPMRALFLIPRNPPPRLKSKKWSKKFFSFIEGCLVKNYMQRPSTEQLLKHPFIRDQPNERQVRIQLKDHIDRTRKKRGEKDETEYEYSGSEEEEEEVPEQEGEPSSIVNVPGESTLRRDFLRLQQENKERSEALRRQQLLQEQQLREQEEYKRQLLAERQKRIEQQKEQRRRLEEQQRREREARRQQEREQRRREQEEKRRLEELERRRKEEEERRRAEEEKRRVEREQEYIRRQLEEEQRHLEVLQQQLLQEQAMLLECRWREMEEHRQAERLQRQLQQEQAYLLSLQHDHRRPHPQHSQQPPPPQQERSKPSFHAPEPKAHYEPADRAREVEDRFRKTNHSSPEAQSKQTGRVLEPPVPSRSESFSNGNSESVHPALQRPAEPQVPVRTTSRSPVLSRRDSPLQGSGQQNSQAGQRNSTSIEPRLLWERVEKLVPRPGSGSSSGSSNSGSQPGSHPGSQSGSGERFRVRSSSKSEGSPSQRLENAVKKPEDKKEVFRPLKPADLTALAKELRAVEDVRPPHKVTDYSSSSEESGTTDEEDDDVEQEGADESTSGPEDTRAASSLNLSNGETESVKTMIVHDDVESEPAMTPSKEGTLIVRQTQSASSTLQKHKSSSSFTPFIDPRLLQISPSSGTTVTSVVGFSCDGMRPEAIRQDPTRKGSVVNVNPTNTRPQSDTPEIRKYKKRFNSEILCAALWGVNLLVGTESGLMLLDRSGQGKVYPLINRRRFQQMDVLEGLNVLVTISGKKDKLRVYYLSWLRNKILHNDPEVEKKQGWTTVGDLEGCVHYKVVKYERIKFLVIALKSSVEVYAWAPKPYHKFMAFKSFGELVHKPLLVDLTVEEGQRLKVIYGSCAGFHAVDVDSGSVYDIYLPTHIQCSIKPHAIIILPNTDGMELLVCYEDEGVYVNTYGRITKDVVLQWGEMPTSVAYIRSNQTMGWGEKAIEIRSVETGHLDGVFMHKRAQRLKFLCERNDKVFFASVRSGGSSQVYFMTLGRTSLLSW", "assay": "Inhibition of DNA-tagged human MAP4K4 assessed as percent of control at 50000 nM by qPCR analysis relative to control"}, "[19]": {"test_system": "Tyrosine-protein kinase ABL1 (Homo sapiens), P00519 [F317L]", "assay": "Inhibition of DNA-tagged non-phosphorylated human ABL1 F317L mutant assessed as percent of control at 50000 nM by qPCR analysis relative to control"}, "[20]": {"molecular_target": "Casein kinase I isoform gamma-2 (Homo sapiens) (UniProt P78368)", "assay": "Inhibition of DNA-tagged human CSNK1G2 assessed as percent of control at 50000 nM by qPCR analysis relative to control"}, "[21]": {"molecular_target": "Protein-tyrosine kinase 2-beta (Homo sapiens) (UniProt Q14289)", "assay": "Inhibition of DNA-tagged human PYK2 assessed as percent of control at 50000 nM by qPCR analysis relative to control"}, "[22]": {"molecular_target": "cAMP-dependent protein kinase catalytic subunit beta (Homo sapiens) (UniProt P22694)", "assay": "Inhibition of DNA-tagged human PKAC-beta assessed as percent of control at 50000 nM by qPCR analysis relative to control"}, "[23]": {"molecular_target": "Serine/threonine-protein kinase BRSK2 (Homo sapiens) (UniProt Q8IWQ3)", "assay": "Inhibition of DNA-tagged human BRSK2 assessed as percent of control at 50000 nM by qPCR analysis relative to control"}, "[24]": {"molecular_target": "Membrane-associated tyrosine- and threonine-specific cdc2-inhibitory kinase (Homo sapiens) (UniProt Q99640)", "sequence (Q99640 whole entry)": "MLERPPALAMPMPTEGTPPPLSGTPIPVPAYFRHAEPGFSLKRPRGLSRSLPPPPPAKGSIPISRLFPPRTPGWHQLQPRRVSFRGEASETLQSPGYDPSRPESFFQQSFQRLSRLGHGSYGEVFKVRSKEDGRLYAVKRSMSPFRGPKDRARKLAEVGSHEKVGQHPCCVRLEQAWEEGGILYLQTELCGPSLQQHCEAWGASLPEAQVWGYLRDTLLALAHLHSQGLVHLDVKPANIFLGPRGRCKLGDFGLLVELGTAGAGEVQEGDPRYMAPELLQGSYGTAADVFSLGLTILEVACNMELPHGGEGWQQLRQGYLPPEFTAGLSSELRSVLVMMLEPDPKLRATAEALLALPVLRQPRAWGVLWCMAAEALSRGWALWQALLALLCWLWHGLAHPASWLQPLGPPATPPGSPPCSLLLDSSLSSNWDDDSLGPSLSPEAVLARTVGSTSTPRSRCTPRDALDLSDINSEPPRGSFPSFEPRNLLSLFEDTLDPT", "assay": "Inhibition of DNA-tagged human PKMYT1 assessed as percent of control at 50000 nM by qPCR analysis relative to control"}, "[25]": {"molecular_target": "Megakaryocyte-associated tyrosine-protein kinase (Homo sapiens) (UniProt P42679)", "assay": "Inhibition of DNA-tagged human CTK assessed as percent of control at 50000 nM by qPCR analysis relative to control"}, "[26]": {"molecular_target": "Serine/threonine-protein kinase 24 (Homo sapiens) (UniProt Q9Y6E0)", "assay": "Inhibition of DNA-tagged human MST3 assessed as percent of control at 50000 nM by qPCR analysis relative to control"}, "[27]": {"molecular_target": "Cytoplasmic tyrosine-protein kinase BMX (Homo sapiens) (UniProt P51813)", "sequence (P51813 whole entry)": "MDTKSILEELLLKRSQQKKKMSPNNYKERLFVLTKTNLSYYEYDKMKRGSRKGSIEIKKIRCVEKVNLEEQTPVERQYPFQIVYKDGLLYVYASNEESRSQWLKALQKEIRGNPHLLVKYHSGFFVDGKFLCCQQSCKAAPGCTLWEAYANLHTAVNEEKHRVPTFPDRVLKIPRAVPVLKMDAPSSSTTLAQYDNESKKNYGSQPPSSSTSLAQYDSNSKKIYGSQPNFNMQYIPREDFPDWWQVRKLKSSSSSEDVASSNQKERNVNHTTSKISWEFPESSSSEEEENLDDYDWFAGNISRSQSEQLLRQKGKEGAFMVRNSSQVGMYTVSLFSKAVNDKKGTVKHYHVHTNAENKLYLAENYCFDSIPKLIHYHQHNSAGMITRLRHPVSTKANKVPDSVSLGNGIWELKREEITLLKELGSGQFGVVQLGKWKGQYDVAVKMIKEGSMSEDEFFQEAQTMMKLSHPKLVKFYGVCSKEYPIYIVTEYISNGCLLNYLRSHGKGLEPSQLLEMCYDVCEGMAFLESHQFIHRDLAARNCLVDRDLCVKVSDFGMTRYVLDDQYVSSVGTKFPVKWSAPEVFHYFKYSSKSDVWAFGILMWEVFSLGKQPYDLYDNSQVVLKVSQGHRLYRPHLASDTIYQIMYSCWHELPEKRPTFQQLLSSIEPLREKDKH", "assay": "Inhibition of DNA-tagged human BMX assessed as percent of control at 50000 nM by qPCR analysis relative to control"}, "[28]": {"molecular_target": "Ephrin type-B receptor 3 (Homo sapiens) (UniProt P54753)", "assay": "Inhibition of DNA-tagged human EPHB3 assessed as percent of control at 50000 nM by qPCR analysis relative to control"}, "[29]": {"molecular_target": "Serine/threonine-protein kinase 36 (Homo sapiens) (UniProt Q9NRP7)", "assay": "Inhibition of DNA-tagged human STK36 assessed as percent of control at 50000 nM by qPCR analysis relative to control"}, "[30]": {"molecular_target": "Cyclin-dependent kinase 4/cyclin D1 (Homo sapiens) (UniProt P11802+P24385)", "assay": "Inhibition of DNA-tagged human CDK4/cyclin D1 assessed as percent of control at 50000 nM by qPCR analysis relative to control", "assay_type": "protein-complex assay"}}, "data": [{"smiles": "CN1C(=O)/C(=C2/C(=O)Nc3ccccc32)c2ccccc21", "values": [{"measurement": "Activity", "setting": "[1]", "value": 75, "unit": "%"}, {"measurement": "Activity", "setting": "[2]", "value": 83, "unit": "%"}, {"measurement": "Activity", "setting": "[3]", "value": 79, "unit": "%"}, {"measurement": "Activity", "setting": "[4]", "value": 100, "unit": "%"}, {"measurement": "Activity", "setting": "[5]", "value": 79, "unit": "%"}, {"measurement": "Activity", "setting": "[6]", "value": 85, "unit": "%"}, {"measurement": "Activity", "setting": "[7]", "value": 97, "unit": "%"}, {"measurement": "Activity", "setting": "[8]", "value": 89, "unit": "%"}, {"measurement": "Activity", "setting": "[9]", "value": 75, "unit": "%"}, {"measurement": "Activity", "setting": "[10]", "value": 85, "unit": "%"}, {"measurement": "Activity", "setting": "[11]", "value": 80, "unit": "%"}, {"measurement": "Activity", "setting": "[12]", "value": 78, "unit": "%"}, {"measurement": "Activity", "setting": "[13]", "value": 87, "unit": "%"}, {"measurement": "Activity", "setting": "[14]", "value": 100, "unit": "%"}, {"measurement": "Activity", "setting": "[15]", "value": 87, "unit": "%"}, {"measurement": "Activity", "setting": "[16]", "value": 100, "unit": "%"}, {"measurement": "Activity", "setting": "[17]", "value": 100, "unit": "%"}, {"measurement": "Activity", "setting": "[18]", "value": 100, "unit": "%"}, {"measurement": "Activity", "setting": "[19]", "value": 100, "unit": "%"}, {"measurement": "Activity", "setting": "[20]", "value": 93, "unit": "%"}, {"measurement": "Activity", "setting": "[21]", "value": 100, "unit": "%"}, {"measurement": "Activity", "setting": "[22]", "value": 91, "unit": "%"}, {"measurement": "Activity", "setting": "[23]", "value": 100, "unit": "%"}, {"measurement": "Activity", "setting": "[24]", "value": 100, "unit": "%"}, {"measurement": "Activity", "setting": "[25]", "value": 56, "unit": "%"}, {"measurement": "Activity", "setting": "[26]", "value": 88, "unit": "%"}, {"measurement": "Activity", "setting": "[27]", "value": 89, "unit": "%"}, {"measurement": "Activity", "setting": "[28]", "value": 90, "unit": "%"}, {"measurement": "Activity", "setting": "[29]", "value": 90, "unit": "%"}, {"measurement": "Activity", "setting": "[30]", "value": 81, "unit": "%"}]}]}
